Measurements from patent US6603023B2 (priority 1996, dated 2003).
“And” between values parts separate entries of the source, which are not always exact repeats. Equal entries are not always repeated. Where two headings read alike, the source gives them in different places. Marks after values point to notes of the source that are not given here.

Assays:
CCRF-CEM/Taxol® = test: cells; assay type: cell-based, human
Outline: (§1)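 Growth was read by XTT/PMS reduction over 4 h at 37 °C after 72 h of compound treatment, with absorbance at 450 nm and 630 nm. CCRF-CEM, P388 and their resistant sublines, grown continuously with their selecting drugs, were cultured in duplicate at 5×10^4 cells/mL. The medium was RPMI-1640 with 10% FBS.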

CCRF-CEM/VM1 = test: cells; assay type: cell-based, human; details: for IC50: read-out: IC50
Outline: as §1

CCRF-CEM/VBL100 = test: cells; assay type: cell-based, human; details: for IC50: read-out: IC50
Outline: as §1

[1] = system: human ovarian adenocarcinoma SK-OV-3
MCF-7/Adr = test: cells; assay type: cell-based, human
Outline: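 Sulforhodamine B readout: TCA-fixed cultures stained 30 min with 0.4% SRB, bound dye extracted in unbuffered Tris and read at 570 nm. Duplicate experiments, six to seven drug concentrations per run.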

[2] = system: human neuroblastoma SK-N-As; test: SRB cytotoxicity, SK-N-As; assay type: cell-based; details: Table 1C; SRB, 72 h; read-out: IC50
Outline: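 Cellular protein content measured with sulforhodamine B after trichloroacetic acid fixation, read at 570 nm. Each duplicate run used six to seven concentrations, analysed by the median-effect method. Cells were cultured at 37 °C, 5% CO2 in RPMI 1640-10% FBS, and drug-resistant lines were maintained with their selecting agent.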

[3] = system: A549 Human Lung Carcinoma; test: A549 xenograft; assay type: in vivo, nude mice; details: for Average Tumor Size, Day 11: control 96; for Average Tumor Size, Day 15: control 306; for Average Tumor Size, Day 17: control 553; for Average Body Weight, Day 7: initial weight
[4] = system: CCRF-CEM human T-cell acute lymphoblastic leukemia cell line; test: XTT cytotoxicity (cell growth inhibition), CCRF-CEM
Outline: as §1

[5] = 35 mg/kg i.p. Q2Dx5 from day 9, day 15
[6] = 35 mg/kg i.p. Q2Dx5 from day 9, day 17
[7] = 35 mg/kg i.p. Q2Dx5 from day 9, day 19
[8] = dEpo B 15 mg/kg i.v. Q2Dx5 from day 9
[9] = dEpo B 15 mg/kg i.v. Q2Dx5 from day 9, day 15
[10] = dEpo B 15 mg/kg i.v. Q2Dx5 from day 9, day 17
[11] = dEpo B 15 mg/kg i.v. Q2Dx5 from day 9, day 19
[12] = A549 Lung, dEpoB 40 mg/kg Q2D x 3, Taxol 15 mg/kg Q2D x 3
[13] = Q2D x 3, 6 hr i.v. infusion: dEpoB 40, Taxol 24 mg/kg
[14] = Q2D x 3: dEpoB 30 mg/kg 18 hr i.v. infusion, Taxol 15 mg/kg 6 hr infusion, VBL 2 and VP-16 25 mg/kg i.v. inj
[15] = dEpoB 50 mg/kg Q2D x 3, 6 hr i.v. infusion

## C/C1=C/C[C@@H](/C(C)=C/c2csc(C)n2)OC(=O)C[C@H](O)C(C)(C)C(=O)[C@H](C)[C@@H](O)[C@@H](C)CCC1 [Desoxyepothilone B, desoxyepothilone B]
CCRF-CEM/Taxol®
  (C)/(A) IC50 ratio: 1.7
CCRF-CEM/Taxol®; Table 1A, XTT, 72 h, read-out: IC50
  IC50: 16.2 nM
CCRF-CEM/VM1; Table 1, XTT
  IC50: 14 nM
CCRF-CEM/VM1; Table 1A, CCRF-CEM/VM1 vs CCRF-CEM
  (D)/(A) IC50 ratio: 1.5
CCRF-CEM/VM1; Table 1A, XTT, 72 h
  IC50: 14 nM
CCRF-CEM/VM1; Table 6, single determinations
  IC50: 14 nM
CCRF-CEM/VBL100; CCRF-CEM/VBL100 MDR cells, listed as dEpoB
  fold resistance (cross-resistance) vs parent CCRF-CEM: 1.8 fold
CCRF-CEM/VBL100; Table 1, XTT
  IC50: 17 nM
CCRF-CEM/VBL100; Table 1A, CCRF-CEM/VBL100 vs CCRF-CEM
  (B)/(A) IC50 ratio: 1.8
CCRF-CEM/VBL100; Table 1A, XTT, 72 h
  IC50: 17 nM
CCRF-CEM/VBL100; Table 6, single determinations
  IC50: 17 nM
CCRF-CEM/VBL100; Table 7, CEM/VBL
  IC50: 16.9 nM
CCRF-CEM/VBL100
  IC50: 17 nM
[1]; 35 mg/kg i.p. Q2Dx5 from day 9
  Toxicity Death: 0/6
  Tumor Disapp.: 0/6
[1]; 35 mg/kg i.p. Q2Dx5 from day 9, day 13
  Average Body Weight Change: -1.7 g
[1]; [5]
  Average Body Weight Change: -2.1 g
  Average Tumor Size (T/C): 0.57
[1]; [6]
  Average Body Weight Change: -2.1 g
  Average Tumor Size (T/C): 0.33
[1]; [7]
  Average Body Weight Change: -2.4 g
  Average Tumor Size (T/C): 0.35
[1]; 35 mg/kg i.p. Q2Dx5 from day 9, day 21
  Average Tumor Size (T/C): 0.28
[1]; [8]
  Toxicity Death: 4/6^b
  Tumor Disapp.: 0/6
[1]; dEpo B 15 mg/kg i.v. Q2Dx5 from day 9, day 13
  Average Body Weight Change: 0 g
[1]; [9]
  Average Body Weight Change: -0.6 g
  Average Tumor Size (T/C): 0.86
[1]; [10]
  Average Body Weight Change: -1.1 g
  Average Tumor Size (T/C): 0.56
[1]; [11]
  Average Body Weight Change: -2.6 g
  Average Tumor Size (T/C): 0.50
[1]; dEpo B 15 mg/kg i.v. Q2Dx5 from day 9, day 21
  Average Tumor Size (T/C): 0.44
[1]; dEpoB 35 mg/kg i.p. Q2Dx5, day 21
  tumor size treated/control: 0.28
[1]; mouse, in vivo
  Lowest Average Tumor Size (T/C): 0.17 T/C
  Therapeutic Effects dEpoB vs Taxol: <<
  Therapeutic effect Rank Order: Taxol ® ≈ dEpoB
  Tumor Disappearance: 0
[1]; mouse, in vivo, iv
  Therapeutic effect Rank Order: Taxol ® > dEpoB
MCF-7/Adr; MCF-7/Adr cells, listed as dEpoB
  fold resistance vs parent MCF-7: 2.4 fold
MCF-7/Adr; Table 1C, MCF-7/Adr vs MCF-7
  folds of resistance (IC50 ratio vs parent cell line): (2.4x)
MCF-7/Adr; Table 1C, SRB, 72 h, read-out: IC50
  IC50: 7.1 nM
[2]
  IC50: 21 nM
[3]; A549, i.v. infusion
  Therapeutic effect Rank Order: Taxol ®, dEpoB, VBL > VP-16
[3]; [12]
  Lowest Average Tumor Size (T/C): 0.01 T/C
  Tumor Disappearance: 1/3
[3]; A549 Lung, dEpoB 40 mg/kg Q2D x 3 vs Taxol 15 mg/kg Q2D x 3
  Therapeutic Effects dEpoB vs Taxol: ≅
[3]; [13]
  Average Body Weight (change), Day 11: -1.6 g
  Average Body Weight (change), Day 13: -3.2 g
  Average Body Weight (change), Day 15: -2.4 g
  Tumor Disappearance: 1/3
  Average Tumor Size, Day 11: 31 mm^3
  Average Tumor Size, Day 15: 4 mm^3
  Average Tumor Size, Day 17: 4 mm^3
  Average Body Weight, Day 7: 27.8 g
[3]; [14]
  Average Body Weight (change), Day 11: -2.0 g
  Average Body Weight (change), Day 13: -5.8 g
  Average Body Weight (change), Day 15: -5.6 g
  Tumor Disappearance: 1/3
  Average Tumor Size, Day 11: 17 mm^3
  Average Tumor Size, Day 15: 26 mm^3
  Average Tumor Size, Day 17: 21 mm^3
  Average Body Weight, Day 7: 29.3 g
[3]; [15]
  Average Body Weight (change), Day 11: -2.0 g
  Average Body Weight (change), Day 13: -3.2 g
  Average Body Weight (change), Day 15: -2.5 g
  Tumor Disappearance: 1/2
  Average Tumor Size, Day 11: 33 mm^3
  Average Tumor Size, Day 15: 6 mm^3
  Average Tumor Size, Day 17: 6 mm^3
  Average Body Weight, Day 7: 27.1 g
[3]; dEpoB 50 mg/kg Q2D x 3, 6 hr i.v. infusion, control 128
  Average Tumor Size, Day 13: 19 mm^3
[3]; mouse, in vivo
  Average Tumor Size, Day 13: 21 mm^3 and 19 mm^3
[4]
  IC50: 9.5 nM
[4]; Table 1, XTT
  IC50: 9 nM
[4]; Table 1A, XTT, 72 h
  IC50: 9.5 nM
[4]; Table 6, single determinations
  IC50: 9.5 nM
[4]; Table 7, CEM
  IC50: 9.5 nM
